From patent US11802120B2, “Fused cyclic urea derivatives as CRHR2 antagonist” (RaQualia Pharma Inc., priority 2018, dated 2023)

Biological target: T1, human CRHR2-alpha (Homo sapiens, UniProt Q13324)
T1 sequence (Q13324 1-411): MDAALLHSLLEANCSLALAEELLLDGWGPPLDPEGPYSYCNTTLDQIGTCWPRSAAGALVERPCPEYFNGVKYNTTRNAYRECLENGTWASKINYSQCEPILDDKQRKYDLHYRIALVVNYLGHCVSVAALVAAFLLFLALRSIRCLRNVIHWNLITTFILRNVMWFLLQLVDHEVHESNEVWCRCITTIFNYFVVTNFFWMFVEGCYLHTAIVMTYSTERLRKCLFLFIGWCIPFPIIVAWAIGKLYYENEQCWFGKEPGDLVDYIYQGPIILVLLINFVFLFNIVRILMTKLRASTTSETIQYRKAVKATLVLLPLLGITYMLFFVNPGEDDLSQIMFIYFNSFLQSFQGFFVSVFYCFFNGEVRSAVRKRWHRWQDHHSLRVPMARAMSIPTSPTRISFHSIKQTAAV
Assay: cAMP functional assay for human CRHR2 (LANCE Ultra cAMP, TR-FRET)
Format: cell-based
Conditions: CHO-K1 cells expressing human CRHR2-alpha, agonist human urocortin2 at EC80, cAMP; read-out: IC50 against CRHR2
How it was run: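 Inhibition of agonist-driven cAMP was assessed in recombinant CHO-K1 cells at 25° C, using 30 min compound pretreatment and 30 min stimulation with EC80 human urocortin2 (CRHR2) or CRF (CRHR1). IC50 came from dose-response fitting.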

IC50, < 300 nM:
CNC(=O)c1ccc(-n2c(=O)n(C[C@H]3CC[C@H](NC(=O)c4cc(Cl)cnc4C)CC3)c3cccc(C)c32)cn1 [Example 192, 5-(3-(((1r,4r)-4-(5-chloro-2-methylnicotinamido)cyclo-hexyl)methyl)-7-methyl-2-oxo-2,3-dihydro-1H-benzo [d]imidazol-1-yl)-N-methylpicolinamide]
Cc1ncc(Cl)cc1C(=O)N[C@H]1CC[C@H](Cn2c(=O)n(-c3ccc(N4CCC4)nc3)c3ccccc32)CC1 [Example 162, N-((1r,4r)-4-((3-(6-(azetidin-1-yl)pyridin-3-yl)-2-oxo-2,3-dihydro-1H-benzo[d]imidazol-1-yl)methyl)cyclo-hexyl)-5-chloro-2-methyl-nicotinamide]
O=C(N[C@H]1CC[C@H](Cn2c(=O)n(-c3ccc(O[C@@H]4CCOC4)nc3)c3ccccc32)CC1)c1cc(Cl)cnc1C(F)F [Example 428, 5-chloro-2-(difluoromethyl)-N-((1R,4r)-4-((2-oxo-3-(6-(((R)-tetrahydrofuran-3-yl)oxy)pyridin-3-yl)-2,3-dihydro-1H-benzo[d]imidazol-1-yl)methyl)cyclohexyl)nicotinamide]
Cn1c(CO)cc2cc(-n3c(=O)n(C[C@H]4CC[C@H](NC(=O)c5cc(Cl)cnc5C(F)F)CC4)c4ccccc43)cnc21 [Example 732, 5-chloro-2-(difluoromethyl)-N-((1r,4r)-4-((3-(2-(hydroxymethyl)-1-methyl-1H-pyrrolo[2,3-b]pyridin-5-yl)-2-oxo-2,3-dihydro-1H-benzo[d]imidazol-1-yl)methyl)cyclohexyl)nicotinamide]
Cc1ncc(Cl)cc1C(=O)N[C@H]1CC[C@H](Cn2c(=O)n(-c3ccc4cncn4c3)c3ccccc32)CC1 [Example 274, 5-chloro-N-((1r,4r)-4-((3-(imidazo[1,5-a]pyridin-6-yl)-2-oxo-2,3-dihydro-1H-benzo [d]imidazol-1-yl)methyl)cyclohexyl)-2-methylnico-tinamide]
Cc1ncc(Cl)cc1C(=O)N[C@H]1CC[C@H](Cn2c(=O)n(-c3cccc(-n4cccn4)c3)c3ccccc32)CC1 [Example 541, N-((1r,4r)-4-((3-(3-(1H-pyrazol-1-yl)phenyl)-2-oxo-2,3-dihydro-1H-benzo[d]imidazol-1-yl)methyl)cyclohexyl)-5-chloro-2-methylnicotinamide]
CNc1cc(C)c(-n2c(=O)n(C[C@H]3CC[C@H](NC(=O)c4cc(Cl)cnc4C)CC3)c3ccccc32)cn1 [Example 435, 5-chloro-2-methyl-N-((1r,4r)-4-((3-(4-methyl-6-(methylamino)pyridin-3-yl)-2-oxo-2,3-dihydro-1H-benzo[d]imidazol-1-yl)methyl)cyclohexyl)nicotinamide]
CCn1nc2ccccc2c1C(=O)N[C@H]1CC[C@H](Cn2c(=O)n(-c3ccc(OC)nc3)c3ccccc32)CC1 [Example 39, 2-ethyl-N-((1r,4r)-4-((3-(6-methoxypyridin-3-yl)-2-oxo-2,3-dihydro-1H-benzo[d]imidazol-1-yl)methyl)cyclohexyl)-2H-indazole-3-carboxamide]
Cn1cc(-c2cncc(-n3c(=O)n(C[C@H]4CC[C@H](NC(=O)c5cc(Cl)cnc5C(F)F)CC4)c4ccccc43)c2)cn1 [Example 682, 5-chloro-2-(difluoromethyl)-N-((1r,4r)-4-((3-(5-(1-methyl-1H-pyrazol-4-yl)pyridin-3-yl)-2-oxo-2,3-dihydro-1H-benzo[d]imidazol-1-yl)methyl)cyclohexyl)nicotinamide]
Cc1ncc(Cl)cc1C(=O)N[C@H]1CC[C@H](Cn2c(=O)n(-c3cnc4c(c3)OCC(=O)N4C)c3ccccc32)CC1 [Example 196, 5-chloro-2-methyl-N-((1r,4r)-4-((3-(4-methyl-3-oxo-3,4-dihydro-2H-pyrido[3,2-b][1,4]oxazin-7-yl)-2-oxo-2,3-dihydro-1H-benzo[d]imidazol-1-yl)methyl)cyclohexyl) nicotinamide]
Cc1ncc(Cl)cc1C(=O)N[C@H]1CC[C@H](Cn2c(=O)n(-c3ccc4c(c3)c(C)nn4C)c3ccccc32)CC1 [Example 213, 5-chloro-N-((1r,4r)-4-((3-(1,3-dimethyl-1H-indazol-5-yl)-2-oxo-2,3-dihydro-1H-benzo[d]imidazol-1-yl)methyl)cyclohexyl)-2-methylnicotinamide]
O=C(N[C@H]1CC[C@H](Cn2c(=O)n(-c3ccccc3Cl)c3cnccc32)CC1)c1cc(Cl)cnc1C(F)F [Example 721, 5-chloro-N-((1r,4r)-4-((3-(2-chlorophenyl)-2-oxo-2,3-dihydro-1H-imidazo[4,5-c]pyridin-1-yl)methyl)cyclo-hexyl)-2-(difluoromethyl) nicotinamide]
Cc1ncc(Cl)cc1C(=O)N[C@H]1CC[C@H](Cn2c(=O)n(-c3cnc4c(N)ncnc4c3)c3ccccc32)CC1 [Example 319, N-((1r,4r)-4-((3-(4-aminopyrido[3,2-d]pyrimidin-7-yl)-2-oxo-2,3-dihydro-1H-benzo[d]imidazol-1-yl)methyl)cyclohexyl)-5-chloro-2-methylnicotinamide]
Cc1ncc(Cl)cc1C(=O)N[C@H]1CC[C@H](Cn2c(=O)n(-c3ccc(C(=O)Nc4cc[nH]n4)nc3)c3ccccc32)CC1 [Example 183, 5-(3-(((1r,4r)-4-(5-chloro-2-methylnicotinamido)cyclo-hexyl)methyl)-2-oxo-2,3-dihydro-1H-benzo[d]imidazol-1-yl)-N-(1H-pyrazol-3-yl) picolinamide]
Cc1ncc(Cl)cc1C(=O)N[C@H]1CC[C@H](Cn2c(=O)n(-c3ccc4nc(C)n(C)c4c3)c3ccccc32)CC1 [Example 209, 5-chloro-N-((1r,4r)-4-((2′,3′-dimethyl-2-oxo-3′H-[1,5′-bibenzo[d]imidazol]-3(2H)-yl)methyl)cyclohexyl)-2-methylnicotinamide]
O=C(N[C@H]1CC[C@H](Cn2c(=O)n(CCOc3ccccc3)c3ncccc32)CC1)c1cc(Cl)cnc1C(F)F [Example 458, 5-chloro-2-(difluoromethyl)-N-((1r,4r)-4-((2-oxo-3-(2-phenoxyethyl)-2,3-dihydro-1H-imidazo[4,5-b]pyridin-1-yl)methyl)cyclohexyl) nicotinamide]
O=C(N[C@H]1CC[C@H](Cn2c(=O)n(-c3cccc4nccn34)c3ccccc32)CC1)c1cc(Cl)cnc1C(F)F [Example 420, 5-chloro-2-(difluoromethyl)-N-((1r,4r)-4-((3-(imidazo[1,2-a]pyridin-5-yl)-2-oxo-2,3-dihydro-1H-benzo[d]imidazol-1-yl)methyl)cyclohexyl)nicotinamide]
CNc1ccc(-n2c(=O)n(C[C@H]3CC[C@H](NC(=O)c4cc(Cl)cnc4C(F)(F)F)CC3)c3ccccc32)nc1 [Example 692, 5-chloro-N-((1r,4r)-4-((3-(5-(methylamino)pyridin-2-yl)-2-oxo-2,3-dihydro-1H-benzo[d]imidazol-1-yl)methyl)cyclohexyl)-2-(trifluoromethyl)nicotinamide]
C[C@@H](Oc1ccc(-n2c(=O)n(C[C@H]3CC[C@H](NC(=O)c4cc(Cl)cnc4C(F)F)CC3)c3ccccc32)cn1)C(N)=O [Example 504, N-((1R,4r)-4-((3-(6-(((R)-1-amino-1-oxopropan-2-yl)oxy)pyridin-3-yl)-2-oxo-2,3-dihydro-1H-benzo[d]imidazol-1-yl)methyl)cyclohexyl)-5-chloro-2-(difluoromethyl) nicotinamide]
COCCNc1ccc(-n2c(=O)n(C[C@H]3CC[C@H](NC(=O)c4cc(Cl)cnc4C)CC3)c3ccccc32)cn1 [Example 593, 5-chloro-N-((1r,4r)-4-((3-(6-((2-methoxyethyl)amino)pyridin-3-yl)-2-oxo-2,3-dihydro-1H-benzo[d]imidazol-1-yl)methyl)cyclo-hexyl)-2-methylnicotinamide]
Cc1ncc(Cl)cc1C(=O)N[C@H]1CC[C@H](Cn2c(=O)n(-c3cncc(-c4ccn(C)n4)c3)c3ccccc32)CC1 [Example 652, 5-chloro-2-methyl-N-((1r,4r)-4-((3-(5-(1-methyl-1H-pyrazol-3-yl)pyridin-3-yl)-2-oxo-2,3-dihydro-1H-benzo[d]imidazol-1-yl)methyl)cyclohexyl)nicotinamide]
Cn1ccc2cc(-n3c(=O)n(C[C@H]4CC[C@H](NC(=O)c5cc(Cl)cnc5C(F)F)CC4)c4cccnc43)cnc21 [Example 730, 5-chloro-2-(difluoromethyl)-N-((1r,4r)-4-((3-(1-methyl-1H-pyrrolo[2,3-b]pyridin-5-yl)-2-oxo-2,3-dihydro-1H-imidazo[4,5-b]pyridin-1-yl)methyl)cyclohexyl)nicotinamide]
CNc1ccc(-n2c(=O)n(C[C@H]3CC[C@H](NC(=O)c4cc(Cl)cnc4C(F)F)CC3)c3ccc(F)cc32)cn1 [Example 626, 5-chloro-2-(difluoromethyl)-N-((1r,4r)-4-((5-fluoro-3-(6-(methylamino)pyridin-3-yl)-2-oxo-2,3-dihydro-1H-benzo [d]imidazol-1-yl)methyl)cyclohexyl)nicotinamide]
